This note sets out measurements from patent publication US11059832B2, “HPK1 inhibitors and methods of using same” (University Health Network, priority 2015, dated 2021).

A value given as a limit tells only on which side of the number the result lay.

Holding throughout (assay type): biochemical
For test [1], the target named is T1, human HPK1 (MAP4K1) (Homo sapiens, UniProt Q92918).
T1 construct: human HPK1 (aa 1-346); purchased Invitrogen PV6355
T1 sequence (Q92918 1-346): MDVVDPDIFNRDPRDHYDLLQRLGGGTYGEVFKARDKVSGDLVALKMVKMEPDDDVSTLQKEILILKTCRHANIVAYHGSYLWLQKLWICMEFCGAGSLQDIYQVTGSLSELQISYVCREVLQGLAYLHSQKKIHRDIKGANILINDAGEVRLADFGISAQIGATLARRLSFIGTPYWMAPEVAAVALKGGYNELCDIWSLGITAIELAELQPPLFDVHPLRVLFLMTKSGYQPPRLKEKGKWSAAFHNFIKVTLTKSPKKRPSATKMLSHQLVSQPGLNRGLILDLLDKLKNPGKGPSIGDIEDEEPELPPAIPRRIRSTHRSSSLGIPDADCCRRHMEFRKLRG
In words: HPK1 inhibition assay (indirect ELISA). The note with it: GST-HPK1 0.6 nM, 12 μM ATP; read-out: IC50 Range HPK1. The procedure:
Active HPK1 (MAP4K1) was purchased as an N-terminal GST fusion of human HPK1 (aa 1-346) from Invitrogen (cat #PV6355). HPK1 activity was measured using an indirect ELISA detection system. GST-HPK1 (0.6 nM) was incubated in the presence of 12 μM ATP (Sigma cat #A7699), 5 mM MOPS (pH 7.2), 2.5 mM β-glycerol-phosphate, 5 mM MgCl2, 0.4 mM EDTA, 1 mM EGTA, 0.05 mM DTT, in a 96 well microtitre plate pre-coated with 0.5 μg/well bovine myelin basic protein (MBP) (Millipore, cat #13-110). The reaction was allowed to proceed for 30 min, followed by 5 washes of the plate with Wash Buffer (phosphate buffered saline supplemented with 0.2% Tween 20), and incubation for 30 min with a 1:3000 dilution of anti-phospho-threonine rabbit polyclonal antibody (Cell Signaling cat #9381). The plate was washed 5 times with wash buffer, incubated for 30 min in the presence of goat anti-rabbit horse radish peroxidase conjugate (BioRad cat #1721019, 1:3000 concentration), washed an additional 5 times with wash buffer, and incubated in the presence of TMB substrate (Sigma cat #T0440). The colorimetric reaction was allowed to continue for 5 min, followed by addition of stop solution (0.5 N H2SO4), and quantified by detection at 450 nm with a monochromatic plate reader (Molecular Devices M5).
Compound inhibition was determined at either a fixed concentration (10 μM) or at a variable inhibitor concentration (typically 50 μM to 0.1 μM in a 10 point dose response titration). Compounds were pre-incubated in the presence of enzyme for 15 min prior to addition of ATP and the activity remaining quantified using the above described activity assay. The % inhibition of a compound was determined using the following formula; % inhibition=100×(1−(experimental value−background value)/(high activity control−background value)). The IC50 value was determined using a non-linear 4 point logistic curve fit (XLfit4, IDBS) with the formula; (A+(B/(1+((x/C)^D)))), where A=background value, B=range, C=inflection point, D=curve fit parameter.

Test [2] deals with T2, LCK (Homo sapiens, UniProt P06239).
T2 construct: purchased Invitrogen P3043
Kind of test: LCK inhibition, FRET based Z'-LYTE Kinase Assay. The note with it: 25 nM LCK, 180 μM ATP; read-out: IC50 Range Lck. The procedure:
(§1) FLT3 and LCK compound inhibition were determined using FRET based Z′-LYTE Kinase Assay Kit with Tyrosine 2 peptide as the substrate (Invitrogen cat #PV3191). […] The % inhibition values were determined according to the manufacturer's directions and IC50 values were obtained using a non-linear 4 point logistic curve fit (XLfit4, IDBS).

The target in test [3] is T3, FLT3 (Homo sapiens, UniProt P36888).
T3 construct: purchased Invitrogen PV3182
T3 sequence (P36888 27-993): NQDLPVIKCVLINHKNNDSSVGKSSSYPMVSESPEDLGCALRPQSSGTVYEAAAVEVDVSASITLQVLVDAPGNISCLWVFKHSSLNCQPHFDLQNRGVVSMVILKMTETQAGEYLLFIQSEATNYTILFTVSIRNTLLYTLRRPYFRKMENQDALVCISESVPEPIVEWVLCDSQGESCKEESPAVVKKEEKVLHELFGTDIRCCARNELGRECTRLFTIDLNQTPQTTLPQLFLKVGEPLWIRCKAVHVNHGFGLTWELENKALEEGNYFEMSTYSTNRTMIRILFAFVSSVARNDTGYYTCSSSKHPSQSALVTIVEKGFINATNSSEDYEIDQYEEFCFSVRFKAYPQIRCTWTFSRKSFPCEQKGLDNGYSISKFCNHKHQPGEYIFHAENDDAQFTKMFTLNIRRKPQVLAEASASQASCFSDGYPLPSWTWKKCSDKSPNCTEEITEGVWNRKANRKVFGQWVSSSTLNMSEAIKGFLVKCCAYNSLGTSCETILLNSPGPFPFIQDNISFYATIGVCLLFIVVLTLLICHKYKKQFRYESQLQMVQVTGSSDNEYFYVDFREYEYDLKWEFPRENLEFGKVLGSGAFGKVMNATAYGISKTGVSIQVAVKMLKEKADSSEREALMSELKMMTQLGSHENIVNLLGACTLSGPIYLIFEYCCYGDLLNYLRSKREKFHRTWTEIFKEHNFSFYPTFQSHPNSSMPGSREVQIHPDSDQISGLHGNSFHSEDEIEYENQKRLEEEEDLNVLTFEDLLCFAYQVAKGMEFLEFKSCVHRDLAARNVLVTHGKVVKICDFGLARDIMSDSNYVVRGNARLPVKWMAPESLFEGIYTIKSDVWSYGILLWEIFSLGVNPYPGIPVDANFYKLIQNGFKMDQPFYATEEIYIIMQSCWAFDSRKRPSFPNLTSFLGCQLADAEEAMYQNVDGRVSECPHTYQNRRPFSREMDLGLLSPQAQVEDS
Kind of test: FLT3 inhibition, FRET based Z'-LYTE Kinase Assay. The following applies: 1 nM FLT3, 940 μM ATP; read-out: IC50 Range Flt3. The procedure: as §1

T2 sequence (P06239 whole entry, species assumed): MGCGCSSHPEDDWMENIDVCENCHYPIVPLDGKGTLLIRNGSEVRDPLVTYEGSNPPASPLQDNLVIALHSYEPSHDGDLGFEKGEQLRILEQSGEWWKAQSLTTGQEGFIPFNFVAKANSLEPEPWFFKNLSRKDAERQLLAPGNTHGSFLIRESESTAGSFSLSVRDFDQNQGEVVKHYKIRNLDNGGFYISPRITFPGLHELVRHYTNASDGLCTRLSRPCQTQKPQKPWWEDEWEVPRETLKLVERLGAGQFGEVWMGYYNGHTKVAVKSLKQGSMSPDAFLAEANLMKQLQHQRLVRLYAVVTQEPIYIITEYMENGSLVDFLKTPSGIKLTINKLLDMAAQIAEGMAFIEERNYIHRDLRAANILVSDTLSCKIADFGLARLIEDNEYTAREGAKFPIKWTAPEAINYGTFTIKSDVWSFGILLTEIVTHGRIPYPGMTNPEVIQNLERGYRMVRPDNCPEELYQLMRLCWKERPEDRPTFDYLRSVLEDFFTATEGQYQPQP

For orientation: IC50 means the point on the concentration scale where inhibition reaches its midpoint. As to `CN1CCN(c2ccc3nc(-c4c(NC5CCOCC5)c5ccsc5[nH]c4=O)[nH]c3c2)CC1` [Example A7, 5-(6-(4-methylpiperazin-1-yl)-1H-benzo[d]imidazol-2-yl)-4-((tetrahydro-2H-pyran-4-yl)amino)thieno[2,3-b]pyridin-6(7H)-one], the 50% inhibitory concentration (IC50) is no more than 50 nM in test [1], 50 to 500 nM in test [2] and no more than 50 nM in test [3].
`CN1CCN(c2ccc3nc(-c4c(NC5CCC5)c5cscc5[nH]c4=O)[nH]c3c2)CC1` [Example A27, 4-(cyclobutylamino)-3-(6-(4-methylpiperazin-1-yl)-1H-benzo[d]imidazol-2-yl)thieno[3,4-b]pyridin-2(1H)-one]: the IC50 in test [1], in test [2] and in test [3] was no more than 50 nM in each case.
`O=c1[nH]c2sccc2c(N[C@H]2CCCC[C@H]2O)c1-c1nc2ccc(N3CCOCC3)cc2[nH]1` [Example A72, 4-(((1S,2R)-2-hydroxycyclohexyl)amino)-5-(6-morpholino-1H-benzo[d]imidazol-2-yl)thieno[2,3-b]pyridin-6(7H)-one]: the IC50 is no more than 50 nM in test [1], greater than 500 nM in test [2] and no more than 50 nM in test [3].
Turning to `CN1CCN(c2ccc3nc(-c4c(N[C@H]5CCNC[C@@H]5F)c5ccsc5[nH]c4=O)[nH]c3c2)CC1` [Example A54, 4-(((3S,4S)-3-fluoropiperidin-4-yl)amino)-5-(6-(4-methylpiperazin-1-yl)-1H-benzo[d]imidazol-2-yl)thieno[2,3-b]pyridin-6(7H)-one], the IC50 in test [1] is no more than 50 nM; in test [2], 50 to 500 nM; in test [3], no more than 50 nM.
Take `CN1CCN(c2cc3[nH]c(-c4c(N)c5sccc5[nH]c4=O)nc3cc2F)CC1` [Example A68, 7-amino-6-(5-fluoro-6-(4-methylpiperazin-1-yl)-1H-benzo[d]imidazol-2-yl)thieno[3,2-b]pyridin-5(4H)-one]: the IC50 in test [1], in test [2] and in test [3] was no more than 50 nM each time.
As to `CN1CCN(c2ccc3nc(-c4c(NC5CCNCC5(F)F)c5ccsc5[nH]c4=O)[nH]c3c2)CC1` (stereo not drawn) [Example A15, 4-((3,3-difluoropiperidin-4-yl)amino)-5-(6-(4-methylpiperazin-1-yl)-1H-benzo[d]imidazol-2-yl)thieno[2,3-b]pyridin-6(7H)-one], the IC50 in test [1], in test [2] and in test [3] was no more than 50 nM throughout.
With `CN1CCN(c2ccc3nc(-c4c(N[C@H]5CCC[C@@H]5O)c5sccc5[nH]c4=O)[nH]c3c2)CC1` [Example A42, 7-(((1S,2S)-2-hydroxycyclopentyl)amino)-6-(6-(4-methylpiperazin-1-yl)-1H-benzo[d]imidazol-2-yl)thieno[3,2-b]pyridin-5(4H)-one], the IC50 in test [1], in test [2] and in test [3] was no more than 50 nM each time.
With `CN1CCN(c2ccc3nc(-c4c(N[C@H]5CCCC[C@@H]5O)c5sccc5[nH]c4=O)[nH]c3c2)CC1` [Example A41, 7-(((1S,2S)-2-hydroxycyclohexyl)amino)-6-(6-(4-methylpiperazin-1-yl)-1H-benzo[d]imidazol-2-yl)thieno[3,2-b]pyridin-5(4H)-one], the IC50 in test [1], in test [2] and in test [3] was no more than 50 nM in each case.
For the compound `CN1CCN(c2ccc3nc(-c4c(NCc5ccccn5)c5sccc5[nH]c4=O)[nH]c3c2)CC1` [Example A53, 6-(6-(4-methylpiperazin-1-yl)-1H-benzo[d]imidazol-2-yl)-7-((pyridin-2-ylmethyl)amino)-thieno[3,2-b]pyridin-5(4H)-one], the IC50 in test [1], in test [2] and in test [3] was no more than 50 nM in each case.
In the case of `CN1CCN(c2ccc3nc(-c4c(NCc5cccnc5)c5sccc5[nH]c4=O)[nH]c3c2)CC1` [Example A52, 6-(6-(4-methylpiperazin-1-yl)-1H-benzo[d]imidazol-2-yl)-7-((pyridin-3-ylmethyl)amino)thieno[3,2-b]pyridin-5(4H)-one], the half-inhibitory concentration (IC50) in test [1], in test [2] and in test [3] was no more than 50 nM in each case.
On to `Nc1c(-c2nc3ccc(N4CCOCC4)cc3[nH]2)c(=O)[nH]c2sccc12` [Example A4, 4-amino-5-(6-morpholino-1H-benzo[d]imidazol-2-yl)thieno[2,3-b]pyridin-6(7H)-one], for which the values for the IC50 in test [1], in test [2] and in test [3] were no more than 50 nM, 50 to 500 nM and no more than 50 nM, respectively.
For the compound `CN1CCN(c2ccc3nc(-c4c(N[C@H]5CC[C@@H](O)CC5)c5sccc5[nH]c4=O)[nH]c3c2)CC1` [Example A40, 7-(((1S,4S)-4-hydroxycyclohexyl)amino)-6-(6-(4-methylpiperazin-1-yl)-1H-benzo[d]imidazol-2-yl)thieno-[3,2-b]pyridin-5(4H)-one], the IC50 in test [1], in test [2] and in test [3] was no more than 50 nM throughout.
On to `CN1CCN(c2ccc3nc(-c4c(N[C@@H]5CCCC[C@@H]5O)c5sccc5[nH]c4=O)[nH]c3c2)CC1` [Example A46, 7-(((1R,2S)-2-hydroxycyclohexyl)amino)-6-(6-(4-methylpiperazin-1-yl)-1H-benzo[d]imidazol-2-yl)thieno[3,2-b]pyridin-5(4H)-one], for which the figures for the IC50 in test [1], in test [2] and in test [3] were no more than 50 nM, 50 to 500 nM and no more than 50 nM, respectively.
On to `CN1CCN(c2ccc3nc(-c4c(N[C@H]5C[C@H](O)C5)c5ccsc5[nH]c4=O)[nH]c3c2)CC1` [Example A8, 4-(((1r,3r)-3-hydroxycyclobutyl)amino)-5-(6-(4-methylpiperazin-1-yl)-1H-benzo[d]imidazol-2-yl)thieno[2,3-b]pyridin-6(7H)-one], for which the results for the IC50 in test [1], in test [2] and in test [3] were no more than 50 nM, 50 to 500 nM and no more than 50 nM, respectively.
`CN1CCN(c2ccc3nc(-c4c(N[C@@H]5CC[C@H](O)C5)c5sccc5[nH]c4=O)[nH]c3c2)CC1` (relative stereo) [Example A36, 7-(((1R*,3S*)-3-hydroxycyclopentyl)amino)-6-(6-(4-methylpiperazin-1-yl)-1H-benzo[d]imidazol-2-yl)thieno[3,2-b]pyridin-5(4H)-one]: the IC50 in test [1], in test [2] and in test [3] was no more than 50 nM throughout.
